From publication PMC6891286, “Towards the Development of an In vivo Chemical Probe for Cyclin G Associated Kinase (GAK)” (Molecules, 2019)

Columns and labels:
Test in all cases: KINOMEscan
Format in all cases: binding
Conditions in all cases: 35 at 1 µM; read-out: % inhibition
DCAMKL1 = biological target: T1, DCAMKL1 (Homo sapiens, UniProt O15075)
T1 construct: purchased Eurofins DiscoverX (KINOMEscan)
Description: (§1) KinomeScan Assay on 35 was performed as previously described at EuroFins DiscoverX (Fremont, CA, USA).

MET(M1250T) = biological target: T2, MET(M1250T) (Homo sapiens, UniProt P08581, M1250T)
T2 construct: purchased Eurofins DiscoverX (KINOMEscan)
Description: as §1

DCAMKL2 = biological target: T3, DCAMKL2 (Homo sapiens, UniProt Q8N568)
T3 construct: purchased Eurofins DiscoverX (KINOMEscan)
Description: as §1

CAMK4 = biological target: T4, CAMK4 (Homo sapiens, UniProt Q16566)
T4 construct: purchased Eurofins DiscoverX (KINOMEscan)
Description: as §1

MEK2 = biological target: T5, MEK2 (Homo sapiens, UniProt P36507)
T5 construct: purchased Eurofins DiscoverX (KINOMEscan)
Description: as §1

BMX = biological target: T6, BMX (Homo sapiens, UniProt P51813)
T6 construct: purchased Eurofins DiscoverX (KINOMEscan)
Description: as §1

AMPK-alpha2 = biological target: T7, AMPK-alpha2 (Homo sapiens, UniProt P54646)
T7 construct: purchased Eurofins DiscoverX (KINOMEscan)
Description: as §1

p38-gamma = biological target: T8, p38-gamma (Homo sapiens, UniProt P53778)
T8 construct: purchased Eurofins DiscoverX (KINOMEscan)
Description: as §1

NEK6 = biological target: T9, NEK6 (Homo sapiens, UniProt Q9HC98)
T9 construct: purchased Eurofins DiscoverX (KINOMEscan)
Description: as §1

TAOK3 = biological target: T10, TAOK3 (Homo sapiens, UniProt Q9H2K8)
T10 construct: purchased Eurofins DiscoverX (KINOMEscan)
Description: as §1

TNK1 = biological target: T11, TNK1 (Homo sapiens, UniProt Q13470)
T11 construct: purchased Eurofins DiscoverX (KINOMEscan)
Description: as §1

PLK1 = biological target: T12, PLK1 (Homo sapiens, UniProt P53350)
T12 construct: purchased Eurofins DiscoverX (KINOMEscan)
Description: as §1

RIPK1 = biological target: T13, RIPK1 (Homo sapiens, UniProt Q13546)
T13 construct: purchased Eurofins DiscoverX (KINOMEscan)
Description: as §1

LTK = biological target: T14, LTK (Homo sapiens, UniProt P29376)
T14 construct: purchased Eurofins DiscoverX (KINOMEscan)
Description: as §1

ANKK1 = biological target: T15, ANKK1 (Homo sapiens, UniProt Q8NFD2)
T15 construct: purchased Eurofins DiscoverX (KINOMEscan)
Description: as §1

CDC2L2 = biological target: T16, CDC2L2 (Homo sapiens, UniProt Q9UQ88)
T16 construct: purchased Eurofins DiscoverX (KINOMEscan)
Description: as §1

ALK(C1156Y) = biological target: T17, ALK(C1156Y) (Homo sapiens, UniProt Q9UM73, C1156Y)
T17 construct: purchased Eurofins DiscoverX (KINOMEscan)
Description: as §1

MAP3K15 = biological target: T18, MAP3K15 (Homo sapiens, UniProt Q6ZN16)
T18 construct: purchased Eurofins DiscoverX (KINOMEscan)
Description: as §1

ADCK3 = biological target: T19, ADCK3 (Homo sapiens, UniProt Q8NI60)
T19 construct: purchased Eurofins DiscoverX (KINOMEscan)
Description: as §1

PIK3CA(M1043I) = biological target: T20, PIK3CA(M1043I) (Homo sapiens, UniProt P42336, M1043I)
T20 construct: purchased Eurofins DiscoverX (KINOMEscan)
Description: as §1

EPHB2 = biological target: T21, EPHB2 (Homo sapiens, UniProt P29323)
T21 construct: purchased Eurofins DiscoverX (KINOMEscan)
Description: as §1

CDKL2 = biological target: T22, CDKL2 (Homo sapiens, UniProt Q92772)
T22 construct: purchased Eurofins DiscoverX (KINOMEscan)
Description: as §1

EGFR = biological target: T23, EGFR (Homo sapiens, UniProt P00533)
T23 construct: purchased Eurofins DiscoverX (KINOMEscan)
Description: as §1

NEK9 = biological target: T24, NEK9 (Homo sapiens, UniProt Q8TD19)
T24 construct: purchased Eurofins DiscoverX (KINOMEscan)
Description: as §1

DAPK2 = biological target: T25, DAPK2 (Homo sapiens, UniProt Q9UIK4)
T25 construct: purchased Eurofins DiscoverX (KINOMEscan)
Description: as §1

EGFR(L858R,T790M) = biological target: T26, EGFR(L858R,T790M) (Homo sapiens, UniProt P00533, L858R/T790M)
T26 construct: purchased Eurofins DiscoverX (KINOMEscan)
Description: as §1

ACVR2A = biological target: T27, ACVR2A (Homo sapiens, UniProt P27037)
T27 construct: purchased Eurofins DiscoverX (KINOMEscan)
Description: as §1

FLT3(D835Y) = biological target: T28, FLT3(D835Y) (Homo sapiens, UniProt P36888, D835Y)
T28 construct: purchased Eurofins DiscoverX (KINOMEscan)
Description: as §1

ALK(L1196M) = biological target: T29, ALK(L1196M) (Homo sapiens, UniProt Q9UM73, L1196M)
T29 construct: purchased Eurofins DiscoverX (KINOMEscan)
Description: as §1

TBK1 = biological target: T30, TBK1 (Homo sapiens, UniProt Q9UHD2)
T30 construct: purchased Eurofins DiscoverX (KINOMEscan)
Description: as §1

PIK3C2B = biological target: T31, PIK3C2B (Homo sapiens, UniProt O00750)
T31 construct: purchased Eurofins DiscoverX (KINOMEscan)
Description: as §1

EPHB3 = biological target: T32, EPHB3 (Homo sapiens, UniProt P54753)
T32 construct: purchased Eurofins DiscoverX (KINOMEscan)
Description: as §1

MST2 = biological target: T33, MST2 (Homo sapiens, UniProt Q13188)
T33 construct: purchased Eurofins DiscoverX (KINOMEscan)
Description: as §1

PIK3CA(E545K) = biological target: T34, PIK3CA(E545K) (Homo sapiens, UniProt P42336, E545K)
T34 construct: purchased Eurofins DiscoverX (KINOMEscan)
Description: as §1

CLK1 = biological target: T35, CLK1 (Homo sapiens, UniProt P49759)
T35 construct: purchased Eurofins DiscoverX (KINOMEscan)
Description: as §1

QSK = biological target: T36, QSK (Homo sapiens, UniProt Q9Y2K2)
T36 construct: purchased Eurofins DiscoverX (KINOMEscan)
Description: as §1

MYO3A = biological target: T37, MYO3A (Homo sapiens, UniProt Q8NEV4)
T37 construct: purchased Eurofins DiscoverX (KINOMEscan)
Description: as §1

SYK = biological target: T38, SYK (Homo sapiens, UniProt P43405)
T38 construct: purchased Eurofins DiscoverX (KINOMEscan)
Description: as §1

MAK = biological target: T39, MAK (Homo sapiens, UniProt P20794)
T39 construct: purchased Eurofins DiscoverX (KINOMEscan)
Description: as §1

NDR1 = biological target: T40, NDR1 (Homo sapiens, UniProt Q15208)
T40 construct: purchased Eurofins DiscoverX (KINOMEscan)
Description: as §1

KIT(D816H) = biological target: T41, KIT(D816H) (Homo sapiens, UniProt P10721, D816H)
T41 construct: purchased Eurofins DiscoverX (KINOMEscan)
Description: as §1

VPS34 = biological target: T42, VPS34 (Homo sapiens, UniProt Q8NEB9)
T42 construct: purchased Eurofins DiscoverX (KINOMEscan)
Description: as §1

PRKX = biological target: T43, PRKX (Homo sapiens, UniProt P51817)
T43 construct: purchased Eurofins DiscoverX (KINOMEscan)
Description: as §1

T6 sequence (P51813 whole entry): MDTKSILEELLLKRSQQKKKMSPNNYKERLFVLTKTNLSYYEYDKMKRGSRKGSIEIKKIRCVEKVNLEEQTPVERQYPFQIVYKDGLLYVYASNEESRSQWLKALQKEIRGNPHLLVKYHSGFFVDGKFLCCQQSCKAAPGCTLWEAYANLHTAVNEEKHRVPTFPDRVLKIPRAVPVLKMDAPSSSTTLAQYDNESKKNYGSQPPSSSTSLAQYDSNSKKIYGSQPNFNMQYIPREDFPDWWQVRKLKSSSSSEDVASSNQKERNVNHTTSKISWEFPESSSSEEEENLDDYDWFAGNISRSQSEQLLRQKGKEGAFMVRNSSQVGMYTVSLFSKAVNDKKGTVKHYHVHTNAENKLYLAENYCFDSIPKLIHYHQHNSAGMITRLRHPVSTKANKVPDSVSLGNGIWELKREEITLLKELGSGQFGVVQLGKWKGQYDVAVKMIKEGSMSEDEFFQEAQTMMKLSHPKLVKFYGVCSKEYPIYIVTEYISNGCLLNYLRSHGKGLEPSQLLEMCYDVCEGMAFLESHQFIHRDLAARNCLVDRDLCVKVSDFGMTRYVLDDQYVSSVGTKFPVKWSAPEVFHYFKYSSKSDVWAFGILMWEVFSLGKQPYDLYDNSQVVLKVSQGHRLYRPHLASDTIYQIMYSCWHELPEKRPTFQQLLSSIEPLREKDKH
T36 sequence (Q9Y2K2 whole entry): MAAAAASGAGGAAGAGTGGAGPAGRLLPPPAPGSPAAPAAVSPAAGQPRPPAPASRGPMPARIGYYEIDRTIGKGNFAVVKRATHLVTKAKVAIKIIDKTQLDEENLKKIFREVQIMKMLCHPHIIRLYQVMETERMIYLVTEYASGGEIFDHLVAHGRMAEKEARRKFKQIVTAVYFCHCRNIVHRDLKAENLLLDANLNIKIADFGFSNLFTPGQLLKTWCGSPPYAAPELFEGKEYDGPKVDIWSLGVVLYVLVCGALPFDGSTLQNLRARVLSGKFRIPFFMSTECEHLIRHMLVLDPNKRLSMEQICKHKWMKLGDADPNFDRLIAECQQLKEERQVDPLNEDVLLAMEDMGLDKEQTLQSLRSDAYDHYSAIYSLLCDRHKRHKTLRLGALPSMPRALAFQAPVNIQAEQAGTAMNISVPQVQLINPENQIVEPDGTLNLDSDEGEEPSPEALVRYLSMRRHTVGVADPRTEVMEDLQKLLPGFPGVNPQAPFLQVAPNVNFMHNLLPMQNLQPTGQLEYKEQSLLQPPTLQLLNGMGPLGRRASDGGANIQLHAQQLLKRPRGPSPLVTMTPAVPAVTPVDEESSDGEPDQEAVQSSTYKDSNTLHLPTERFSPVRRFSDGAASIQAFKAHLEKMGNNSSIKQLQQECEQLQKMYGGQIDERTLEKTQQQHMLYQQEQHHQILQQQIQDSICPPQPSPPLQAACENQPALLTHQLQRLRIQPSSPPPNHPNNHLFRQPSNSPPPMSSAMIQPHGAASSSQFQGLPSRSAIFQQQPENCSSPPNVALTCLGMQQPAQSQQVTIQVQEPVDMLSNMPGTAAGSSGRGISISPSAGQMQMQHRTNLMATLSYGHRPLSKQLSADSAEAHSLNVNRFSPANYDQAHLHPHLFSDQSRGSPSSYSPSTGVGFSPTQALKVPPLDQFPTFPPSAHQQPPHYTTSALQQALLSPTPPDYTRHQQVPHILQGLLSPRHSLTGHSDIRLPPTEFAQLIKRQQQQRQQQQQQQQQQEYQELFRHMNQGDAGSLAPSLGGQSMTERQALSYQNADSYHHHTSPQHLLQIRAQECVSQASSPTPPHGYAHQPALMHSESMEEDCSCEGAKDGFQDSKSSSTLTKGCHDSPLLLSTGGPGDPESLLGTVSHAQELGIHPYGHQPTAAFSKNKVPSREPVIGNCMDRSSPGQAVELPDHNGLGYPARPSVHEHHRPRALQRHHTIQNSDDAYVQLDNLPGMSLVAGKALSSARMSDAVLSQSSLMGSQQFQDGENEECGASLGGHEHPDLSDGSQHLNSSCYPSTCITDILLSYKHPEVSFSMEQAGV
T20 sequence (P42336 whole entry M1043I): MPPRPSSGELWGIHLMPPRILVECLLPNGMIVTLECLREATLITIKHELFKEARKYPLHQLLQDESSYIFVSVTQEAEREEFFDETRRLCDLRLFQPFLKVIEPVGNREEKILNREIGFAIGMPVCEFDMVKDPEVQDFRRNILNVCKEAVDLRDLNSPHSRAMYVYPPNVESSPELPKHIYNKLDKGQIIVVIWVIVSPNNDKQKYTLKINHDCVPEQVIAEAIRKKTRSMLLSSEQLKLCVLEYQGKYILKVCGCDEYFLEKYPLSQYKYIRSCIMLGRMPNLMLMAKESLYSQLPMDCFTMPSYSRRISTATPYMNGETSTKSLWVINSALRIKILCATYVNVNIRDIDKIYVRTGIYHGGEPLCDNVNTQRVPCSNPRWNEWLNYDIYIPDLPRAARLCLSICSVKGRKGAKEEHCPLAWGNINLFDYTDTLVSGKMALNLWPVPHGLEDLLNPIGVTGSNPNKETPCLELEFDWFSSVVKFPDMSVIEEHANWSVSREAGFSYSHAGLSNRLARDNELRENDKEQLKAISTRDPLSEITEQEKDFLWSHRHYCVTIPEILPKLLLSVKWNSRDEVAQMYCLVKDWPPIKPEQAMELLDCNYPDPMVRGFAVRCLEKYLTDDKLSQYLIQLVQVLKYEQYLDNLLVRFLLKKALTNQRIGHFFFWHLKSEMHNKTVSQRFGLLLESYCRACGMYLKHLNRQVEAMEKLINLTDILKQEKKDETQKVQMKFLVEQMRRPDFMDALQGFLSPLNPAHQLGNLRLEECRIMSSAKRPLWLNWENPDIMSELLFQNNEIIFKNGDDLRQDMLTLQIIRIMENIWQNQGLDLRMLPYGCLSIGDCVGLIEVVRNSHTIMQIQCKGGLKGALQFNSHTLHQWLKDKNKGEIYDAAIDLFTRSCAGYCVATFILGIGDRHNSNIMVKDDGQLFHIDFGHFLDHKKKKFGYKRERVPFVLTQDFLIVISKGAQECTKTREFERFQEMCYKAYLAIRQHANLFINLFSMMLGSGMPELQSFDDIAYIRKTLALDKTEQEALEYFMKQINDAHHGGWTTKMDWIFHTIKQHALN
T19 sequence (Q8NI60 163-647): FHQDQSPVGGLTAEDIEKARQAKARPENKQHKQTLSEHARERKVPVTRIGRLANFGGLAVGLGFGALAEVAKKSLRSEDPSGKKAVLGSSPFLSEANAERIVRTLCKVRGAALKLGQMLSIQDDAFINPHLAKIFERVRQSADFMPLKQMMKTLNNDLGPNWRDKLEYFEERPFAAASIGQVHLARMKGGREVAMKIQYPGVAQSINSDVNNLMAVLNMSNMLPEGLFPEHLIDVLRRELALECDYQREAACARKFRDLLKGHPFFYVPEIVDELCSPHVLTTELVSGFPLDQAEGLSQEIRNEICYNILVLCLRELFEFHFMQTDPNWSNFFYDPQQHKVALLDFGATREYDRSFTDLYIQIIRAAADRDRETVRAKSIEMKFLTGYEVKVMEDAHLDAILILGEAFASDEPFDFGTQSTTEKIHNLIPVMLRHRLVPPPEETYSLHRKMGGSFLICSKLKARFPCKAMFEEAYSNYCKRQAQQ
T5 sequence (P36507 whole entry): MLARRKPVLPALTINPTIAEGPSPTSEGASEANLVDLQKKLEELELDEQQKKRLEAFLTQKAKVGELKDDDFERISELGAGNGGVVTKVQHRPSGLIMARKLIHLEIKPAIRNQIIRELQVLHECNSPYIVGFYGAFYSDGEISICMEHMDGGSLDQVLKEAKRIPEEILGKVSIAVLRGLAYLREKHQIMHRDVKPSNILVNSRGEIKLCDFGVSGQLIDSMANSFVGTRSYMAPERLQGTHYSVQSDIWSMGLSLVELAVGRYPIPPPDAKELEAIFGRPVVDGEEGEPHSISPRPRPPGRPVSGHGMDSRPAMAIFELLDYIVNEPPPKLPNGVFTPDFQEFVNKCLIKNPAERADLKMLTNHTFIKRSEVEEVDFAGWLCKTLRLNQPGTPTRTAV
T22 sequence (Q92772 whole entry): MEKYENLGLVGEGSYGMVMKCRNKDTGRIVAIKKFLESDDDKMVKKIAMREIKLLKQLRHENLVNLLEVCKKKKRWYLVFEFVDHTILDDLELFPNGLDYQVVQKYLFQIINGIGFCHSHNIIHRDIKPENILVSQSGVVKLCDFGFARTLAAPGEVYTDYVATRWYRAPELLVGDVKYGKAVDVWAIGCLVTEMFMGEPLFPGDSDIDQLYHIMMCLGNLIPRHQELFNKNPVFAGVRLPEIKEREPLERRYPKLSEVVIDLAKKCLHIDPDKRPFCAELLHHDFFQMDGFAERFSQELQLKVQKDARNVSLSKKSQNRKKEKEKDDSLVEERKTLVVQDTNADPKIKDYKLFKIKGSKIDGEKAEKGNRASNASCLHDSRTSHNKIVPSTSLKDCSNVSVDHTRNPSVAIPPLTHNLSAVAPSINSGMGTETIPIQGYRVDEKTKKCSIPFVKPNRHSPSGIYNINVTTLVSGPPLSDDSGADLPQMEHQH
T39 sequence (P20794 whole entry): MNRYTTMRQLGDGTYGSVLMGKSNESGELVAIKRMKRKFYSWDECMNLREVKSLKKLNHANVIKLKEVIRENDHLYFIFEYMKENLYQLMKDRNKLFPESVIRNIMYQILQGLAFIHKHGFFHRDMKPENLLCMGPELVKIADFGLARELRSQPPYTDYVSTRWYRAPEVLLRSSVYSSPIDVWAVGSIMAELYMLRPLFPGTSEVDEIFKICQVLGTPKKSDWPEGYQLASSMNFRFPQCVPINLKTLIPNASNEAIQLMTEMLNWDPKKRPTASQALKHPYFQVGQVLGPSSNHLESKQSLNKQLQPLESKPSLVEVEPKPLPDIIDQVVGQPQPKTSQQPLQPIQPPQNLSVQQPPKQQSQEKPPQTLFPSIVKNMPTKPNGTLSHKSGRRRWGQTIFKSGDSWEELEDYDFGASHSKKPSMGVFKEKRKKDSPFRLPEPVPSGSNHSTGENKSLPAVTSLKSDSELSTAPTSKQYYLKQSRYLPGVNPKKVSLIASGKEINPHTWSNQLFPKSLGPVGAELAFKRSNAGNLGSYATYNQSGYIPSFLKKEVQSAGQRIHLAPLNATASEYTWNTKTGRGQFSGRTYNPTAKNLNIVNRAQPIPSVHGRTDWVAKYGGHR

`Brc1ccc2nccc(Nc3ccc4cn[nH]c4c3)c2c1` [Compound 35, 6-Bromo-N-(1H-indazol-6-yl)quinolin-4-amine] gave an activity at 1 µM (DCAMKL1) of 99%, an activity at 1 µM (MET(M1250T)) of 100% and an activity at 1 µM (DCAMKL2) of 100%. The activity at 1 µM (CAMK4) was 100%, the activity at 1 µM (MEK2) was 50% and the activity at 1 µM (BMX) was 100%. It also gave an activity at 1 µM (AMPK-alpha2) of 100%, an activity at 1 µM (p38-gamma) of 94% and an activity at 1 µM (NEK6) of 100%. The activity at 1 µM (TAOK3) was 97%, the activity at 1 µM (TNK1) was 69% and the activity at 1 µM (PLK1) was 100%. For the same compound, the activity at 1 µM (RIPK1) was 100%, the activity at 1 µM (LTK) was 100% and the activity at 1 µM (ANKK1) was 100%. For the same compound, the activity at 1 µM (CDC2L2) was 70%, the activity at 1 µM (ALK(C1156Y)) was 64% and the activity at 1 µM (MAP3K15) was 98%. The activity at 1 µM (ADCK3) was 100%, the activity at 1 µM (PIK3CA(M1043I)) was 99% and the activity at 1 µM (EPHB2) was 100%. It also gave an activity at 1 µM (CDKL2) of 100%, an activity at 1 µM (EGFR) of 100% and an activity at 1 µM (NEK9) of 100%. For the same compound, the activity at 1 µM (DAPK2) was 100%, the activity at 1 µM (EGFR(L858R,T790M)) was 98% and the activity at 1 µM (ACVR2A) was 100%. The activity at 1 µM (FLT3(D835Y)) was 100%, the activity at 1 µM (ALK(L1196M)) was 86% and the activity at 1 µM (TBK1) was 76%. It also gave an activity at 1 µM (PIK3C2B) of 100%, an activity at 1 µM (EPHB3) of 100% and an activity at 1 µM (MST2) of 100%. For the same compound, the activity at 1 µM (PIK3CA(E545K)) was 66%, the activity at 1 µM (CLK1) was 100% and the activity at 1 µM (QSK) was 100%. For the same compound, the activity at 1 µM (MYO3A) was 100%, the activity at 1 µM (SYK) was 89% and the activity at 1 µM (MAK) was 100%. For the same compound, the activity at 1 µM (NDR1) was 69%, the activity at 1 µM (KIT(D816H)) was 100% and the activity at 1 µM (VPS34) was 100%. The activity at 1 µM (PRKX) was 100%.
